Data on twelve compounds can be found in patent publication US4304833A, “Photographic products and processes employing triarylmethane compounds” (Polaroid Corporation, priority 1980, dated 1981).

Common to all, as to assay type: physicochemical
Data set [1] in a line: transmission densities of image-receiving components before and after bleaching with aqueous 1 N KOH. The note with it: for Transmission density After Bleaching B / Transmission density After Bleaching G / Transmission density After Bleaching R: 1 N KOH. An excerpt: (§1) Using appropriate solvents, samples of the dye compounds prepared in Examples 12, 13, 24, 26 and 39 were incorporated into the image-receiving layer 3 of image-receiving components comprising the structure set forth below by mixing a solution of each compound with a solution of the graft copolymer and coating this mixture on top of the timing layer to complete each of the image-receiving components.
A transparent 4 mil polyethylene terephthalate film base coated with, in succession:
1. as a polymeric acid layer, a mixture of about 9 parts of a partial butyl ester of polyethylene/maleic anhydride copolymer and 1 part of polyvinyl butyral coated at a coverage of about 2,500 mgs./ft.^2 ;
2. a timing layer containing a 14:1 ratio of a 60-30-4-6 tetrapolymer of butylacrylate, diacetone acrylamide, styrene and methacrylic acid and polyvinyl alcohol at a coverage of 500 mgs./ft.^2 ;
3. a graft copolymer of 4-vinylpyridine and vinylbenzyltrimethylammoniumchloride grafted on hydroxyethyl cellulose in a weight ratio of 2.2/1/2.2, respectively, coated at a coverage of 300 mgs./ft.^2 to provide an image-receiving layer and containing the selected dye compound at a coverage of 22 mgs./ft.^2.
Each of the image-receiving components containing the respective dye compounds were placed on a piece of gelatin coated Mylar, and the transmission densities for red (R), green (G) and blue (B) were recorded on a transmission densitometer. Then several drops of aqueous 1 N KOH were added to each gelatin sheet, and the image-receiving components were lightly pressed against the gelatin sheets to "bleach" the dye compounds. […]

Data set [2] can be described thus: decolorization of solution with aqueous 1N sodium hydroxide, then acidification. The note with it: for color after decolorization with 1N NaOH and lowering to pH 1: methanol solution, aqueous hydrochloric acid to pH 1. How it is done:
Also, samples of the compounds prepared in Examples 24, 26 and 39 above were dissolved in a small amount of methanol, and aqueous 1N sodium hydroxide was added to each solution to decolorize the compound.

The nature of data set [3]: decolorization of methanol solution added to aqueous 1 N KOH.
The nature of data set [4]: bleaching rate (T 1/2) at pH=12 in buffer, visible spectrometer. The note with it: for Wavelength (λmax-nm): pH=12 buffer; for T 1/2 (pH = 12): pH=12 buffer (aqueous), at λmax given. How it is done:
The "bleaching" rates for the compounds of Examples 21, 23, 24, 39 and 41 were determined at pH=12 in terms of T 1/2. By T 1/2 is meant the time measured for one-half of the colored compound to decolorize. In making these determinations, a cell containing about 3 ml of pH=12 buffer (aqueous) was placed in a visible spectrometer. A sample of each compound was dissolved in methanol, and a small amount (less than 0.1 cc) of each solution was injected into the buffer. The optical densities were then recorded at a selected wavelength value to determine T 1/2.

The nature of data set [5]: bleaching of TLC spot treated with 1 N NaOH. The method, then: (c) β-(methylsulfonyl)ethylchloroformate (196 mg) in 8 ml of toluene was added dropwise over 20 minutes to a refluxing solution of 317.3 mg of the compound prepared in step (b) in 15 ml toluene. The yellow mixture was allowed to stir under reflux for an additional hour after addition was complete. The reaction mixture was a deep yellow. […] The yellow spot representing the title compound when treated with 1 N NaOH produced a magenta color which bleached in approximately 5 seconds. The solvent was removed from the remaining reaction mixture under vacuum to give a yellow solid. Preparative TLC with 150 mg of solid in 4 ml tetrahydrofuran using 10% methanol/chloroform gave a yellow band which was separated and washed with acetone to yield approximately 5 mg of the title compound.

Data set [6] in a line: absorption measured in ethanol. The method, then: (c) To a stirred slurry of the phthalol acyl derivative obtained in step b (7.4 g; 0.0155 M), sodium bicarbonate (6.51 g; 0.078 M) and water (200 ml) was added dropwise, a solution of 4.44 g (0.018 M) iodine in 175 ml methylene chloride. After a total of 20 minutes of stirring at room temperature, the aqueous layer was separated and neutralized by adding it to one liter of water containing 15 ml concentrated hydrochloric acid. The aqueous fraction was extracted with methylene, chloride, the organic layer was dried over sodium sulfate and the solvent was removed in vacuo. The dark orange residue was purified via medium pressure column chromatography (silica gel) methanol-methylene chloride; methanol content varied from 0.5-2%). The title compound was isolated as an orange glass. (λmax 424 nm, Epsilon 22,500 as measured in ethanol)

Data set [7] can be described thus: addition of aqueous base (1 N NaOH) to methanol and acetone solutions. From the text: The title compound gave yellow solutions in methanol and acetone.
Data set [8] is described as follows: decolorization half-life of acetone solution in pH=12 buffer. The method, then: A sample of an acetone solution of the purified dye compound was added to fresh pH=12 buffer and the first half-life (T 1/2) and the second half-life (T 1/2) were measured giving the following results wherein OD refers to optical density. By T 1/2 is meant the time measured for one-half of said colored compound to decolorize.
The λmax of the pure title compound was 560 nm as measured in acetone--pH 12 buffer, and the T 1/2 values were measured at this wavelength.

A short description of data set [9]: bleaching of dye in image-receiving layer film with aqueous 1 N NaOH. The note with it: dye in image-receiving layer 3.
Source text: as §1

Setting [10] is: 22 mgs./ft.^2, coating stored for over 3 months.
Setting [11] is: coating stored for over 3 months, bleaching time about 3 minutes.
The mark [12] stands for this setting: 22 mgs./ft.^2, after 15 to 60 seconds.
The mark [13] stands for this setting: Experiment 1, pH=12 buffer, 560 nm.
Where [14] appears, read: Experiment 2, pH=12 buffer, 560 nm.

Molecules are shown by their SMILES.

For the compound `CN(C(=O)OCCS(C)(=O)=O)S(=O)(=O)c1ccccc1C(=C1C=C(C(O)(C(F)(F)F)C(F)(F)F)C(=O)c2ccccc21)c1cc2c3c(c1)CCCN3CCC2` [Example 26], in data set [1] (setting [10]), the “Transmission density Before Bleaching B” value is recorded as “.05”, the “Transmission density Before Bleaching G” value is “.06” and the “Transmission density Before Bleaching R” value is “.19”. Further, in data set [1] (setting [11]), the “Transmission density After Bleaching B” value was “.02”, the “Transmission density After Bleaching G” value was “.00” and the “Transmission density After Bleaching R” value is listed as “.02”. For the same compound, the “color after decolorization with 1N NaOH and lowering to pH 1” value (from here on “color … with 1N NaOH and lowering to pH 1”) in [2] is listed as “remained colorless even at pH 1”. In data set [3], the “decolorization (in words)” value is reported as “decolorized substantially instantaneously”.
With `CC(=O)N(C)S(=O)(=O)c1ccccc1C(=C1C=C(C(O)(C(F)(F)F)C(F)(F)F)C(=O)c2ccccc21)c1cc2c3c(c1)CCCN3CCC2` [Example 9], in data set [3], the decolorization time result is given as “approximately 5 seconds”.
Consider `COC1=CC(=C(c2cc(OC)c(O)c(OC)c2)c2ccccc2COC(=O)COc2ccccc2)C=C(OC)C1=O` [Example 41], for which, in data set [4], the “Wavelength (λmax-nm)” value is 640 nm and the “T 1/2 (pH = 12)” value is recorded as 18 sec.
For `CC1=CC(=C(c2cc(C)c(O)c(C)c2)c2ccccc2S(=O)(=O)N(C)C(=O)OCCS(C)(=O)=O)C=C(C)C1=O` [Example 24], in [1] (22 mgs./ft.^2), the “Transmission density Before Bleaching B” value is recorded as “.40”, the “Transmission density Before Bleaching G” value was “.00” and the “Transmission density Before Bleaching R” value is “.00”. For the same compound, in data set [1] (setting [12]), the “Transmission density After Bleaching B” value is “.00”, the “Transmission density After Bleaching G” value is recorded as “.00” and the “Transmission density After Bleaching R” value is recorded as “.01”. The “color … with 1N NaOH and lowering to pH 1” value in [2] is reported as “remained colorless even at pH 1”. Besides, in [4], the “Wavelength (λmax-nm)” value turned out to be 590 nm and the “T 1/2 (pH = 12)” value came to 2 sec.
For the compound `COCC(=O)OCc1ccccc1C(=C1C=C(OC)C(=O)C(OC)=C1)c1cc(OC)c(O)c(OC)c1` [Example 39], in [1] (22 mgs./ft.^2), the “Transmission density Before Bleaching B” value is “.59”, the “Transmission density Before Bleaching G” value is recorded as “.03” and the “Transmission density Before Bleaching R” value was “.01”. Moreover, in [1] (setting [12]), the “Transmission density After Bleaching B” value was “.01”, the “Transmission density After Bleaching G” value was “.00” and the “Transmission density After Bleaching R” value is on record as “.00”. In addition, in data set [2], the “color … with 1N NaOH and lowering to pH 1” value is “remained colorless even at pH 1”. For the same compound, in [4], the “Wavelength (λmax-nm)” value is listed as 640 nm and the “T 1/2 (pH = 12)” value was 44 sec.
For `CN(Cc1ccccc1C(=C1C=CC(=O)C=C1)c1ccc(O)cc1)C(=O)OCCS(C)(=O)=O` [Example 44], the “time to bleach of magenta color” value in data set [5] is “approximately 5 seconds”. Moreover, the “color after acidifying and again treating with aqueous 1N NaOH” value in data set [2] (after bleaching in 1N NaOH) is given as “remained colorless”. The “time to complete bleaching” value in [2] (aqueous 1N NaOH) is at most 5 s.
The compound `CC1=CC(=C(c2cc(C)c(O)c(C)c2)c2ccccc2COC(=O)COCC(=O)O)C=C(C)C1=O` [Example 42] came in with a λmax in data set [6] of 424 nm. Moreover, the Epsilon in [6] (at λmax, in M-1 cm-1 (unit assumed)) is reported as 22,500.
Take `COC1=CC(=C(c2cc(OC)c(O)c(OC)c2)c2ccccc2S(=O)(=O)N(C)C(C)=O)C=C(OC)C1=O` [Example 23]: in data set [4], the “Wavelength (λmax-nm)” value amounted to 640 nm and the “T 1/2 (pH = 12)” value is reported as 158 sec.
As for `CN(C(=O)OCCS(C)(=O)=O)C(=O)c1ccccc1C(=C1C=CC(=O)C=C1)c1ccc(O)cc1` [Example 45], the “bleaching on addition of aqueous base” value in data set [7] is “rapidly and irreversibly bleached to colorless”. For the same compound, in [8] (setting [13]), the “1st T 1/2” value stood at 10.0 s, the “2nd T 1/2” value is 8.5 s, the “Final OD” value was determined as 0.02 and the “OD at 1.5 sec.” value came out at 2.00. Besides, in data set [8] (setting [14]), the “1st T 1/2” value turned out to be 9.5 s, the “2nd T 1/2” value came to 8.5 s, the “Final OD” value worked out at 0.01 and the “Initial OD (extrapolated)” value was 1.15. For the same compound, in data set [8] (setting [14]), the “OD at 3.0 sec.” value was found to be 0.90. The compound also returned a λmax in data set [8] (acetone--pH 12 buffer) of 560 nm. Besides, the “bleaching of film with aqueous 1 N NaOH” value in data set [9] is “quickly bleached”.
Consider `COC1=CC(=C(c2cc(OC)c(O)c(OC)c2)c2ccccc2S(=O)(=O)N(C)C(=O)OCCS(C)(=O)=O)C=C(OC)C1=O` [Example 21], for which, in data set [4], the “Wavelength (λmax-nm)” value amounted to 640 nm and the “T 1/2 (pH = 12)” value is recorded as 2 sec.
On to `COC1=CC(=C(c2ccc(N3CCOCC3)cc2)c2ccccc2S(=O)(=O)N(C)C(=O)OCCS(C)(=O)=O)C=C(OC)C1=O` [Example 12], for which, in data set [1] (22 mgs./ft.^2), the “Transmission density Before Bleaching B” value is recorded as “.45”, the “Transmission density Before Bleaching G” value is “.31” and the “Transmission density Before Bleaching R” value was “.00”. In [1] (setting [12]), the “Transmission density After Bleaching B” value was “.00”, the “Transmission density After Bleaching G” value is listed as “.01” and the “Transmission density After Bleaching R” value is recorded as “.02”.
Take `COC1=CC(=C(c2cc3c4c(c2)CCCN4CCC3)c2ccccc2S(=O)(=O)N(C)C(=O)OCCS(C)(=O)=O)C=C(OC)C1=O` [Example 13]: in [1] (22 mgs./ft.^2), the “Transmission density Before Bleaching B” value is recorded as “.09”, the “Transmission density Before Bleaching G” value is “.32” and the “Transmission density Before Bleaching R” value is recorded as “.21”. In [1] (setting [12]), the “Transmission density After Bleaching B” value was “.00”, the “Transmission density After Bleaching G” value is listed as “.01” and the “Transmission density After Bleaching R” value is “.01”.
